# Non-standard residues stand in square brackets, D forms with d. Residues, ends and D or L forms follow the SMILES beside them. *: point of attachment. Dolaproine = CO[C@@H]([C@@H]1CCCN1)[C@@H](C)C(=O)O; Dil = CC[C@H](C)[C@H](NC)[C@@H](CC(=O)O)OC; X1 = C[C@@H](N*)[C@@H](O)c1ccccc1; NMeV = CN[C@H](C(=O)O)C(C)C
# How the values were obtained:
# MCF7 cells = experiment: ATP secretion from MCF7 cells; assay type: cell-based
# [1] = test system: HeLa cervical cancer cells; experiment: Western blot analysis of ER stress in HeLa cells; assay type: cell-based; conditions: 1000 nM or 100 nM, 16 hours
# Experimental: HeLa cervical cancer cells were treated with 1000 nM or 100 nM MMAE, Vincristine, or Paclitaxel for 16 hours and harvested for western blot analysis.
# [2] = test system: U-266 multiple myeloma cells; experiment: Western blot analysis of ER stress in U-266 cells; assay type: cell-based; conditions: MMAE 492 nM, SGN-CD48A 10 ng/ml, 24 and 48 hours
# Experimental: U-266 multiple myeloma cells were treated with free MMAE (492 nM), an MMAE-containing ADC (SGN-CD48A, 10 ng/ml), and a non-binding MMAE-ADO (10 ng/ml) for 24 and 48 hours. Cells were harvested at each time point and whole cell lysates were prepared. Lysates for each sample were run on an SDS-Page and transferred onto a nitrocellulose membrane. Western blot analysis was performed using phospho-JNK Thr183/Tyr185 (pJNK), PARR, ATF4, […], phospho-IRE-1 Ser274 (pIRE-1). β-actin serves as a loading control. […] Importantly, the induction of ER stress by MMAE in U-266 cells was sufficient to elicit markers of ICD.
# T-24 (bladder) cells = experiment: ATP secretion from T-24 cells; assay type: cell-based; conditions: 48 hours
# Experimental: (§1) T-24 (bladder) cells were treated with MMAE or an MMAE-containing ADC (ASG-22ME) for 48 hours and analyzed for ATP secretion. […] T-24 cells were also treated with MMAE, an MMAE-containing ADC (ASG22ME, Enfortumab vedotin), vincristine, and Paclitaxel for 24 hours. Cells were washed and harvested, and subsequently co-cultured with the enriched macrophages as above. Macrophages were harvested 4 days after co-culture and assayed for immune activation by flow cytometry. Level of antigen-presentation (as measured by frequency of MHCII-expressing macrophages) was quantified and normalized to macrophages that were co-cultured with untreated tumor cells. […] Supernatant from the co-culture of macrophages and dying T-24 tumor cells was harvested after 24 hours and assayed for levels of cytokine and chemokine production by ELISA and normalized to macrophages that were co-cultured with untreated tumor cells.
# [3] = test system: MiaPaca-CHOP-luciferase cells subcutaneously engrafted; experiment: Tumoral CHOP luciferase signal in engrafted MiaPaca-CHOP-luciferase tumors; assay type: in vivo, NOD/SCID/gamma-chain deficient mice; conditions: intratumorally; MMAE 0.36 mg/kg, vincristine 1.0 mg/kg, Paclitaxel 10 mg/kg
# Experimental: MiaPaca-CHOP-luciferase cells were subcutaneously engrafted into NOD/SCID/gamma-chain deficient mice. Subcutaneous tumors were treated intratumorally with MMAE (0.36 mg/kg), vincristine (1.0 mg/kg), and Paclitaxel (10 mg/kg) and tumoral luciferase signal was monitored over time.
# [4] = test system: Hep3b, Huh7, and JHH7 cells co-cultured with macrophages; experiment: Macrophage costimulation/antigen presentation after co-culture with treated liver tumor cells; assay type: cell-based; conditions: macrophages harvested 4 days after co-culture; normalized to Paclitaxel-treated tumor cells
# Experimental: (§2) Liver tumor lines Hep3b, Huh7, and JHH7 cells were treated with MMAE, Tubulysin M, vincristine, and Paclitaxel for 24 hours and analyzed for ATP secretion. […] Cells were washed and harvested, and subsequently co-cultured with enriched macrophages prepared as above. Macrophages were harvested 4 days after co-culture and assayed for immune activation by flow cytometry. Levels of costimulation (as measured by CD86 expression, JHH7) and antigen-presentation (as measured by frequency of MHCII-expressing cells, Hep3b, Huh7, and JHH7) were quantified and normalized to macrophages that were co-cultured with […]. […] Supernatant from the co-culture of macrophages and dying liver tumor cells was harvested 24 hours later and assayed for levels of cytokine and chemokine production by ELISA and normalized to macrophages that were co-cultured with untreated tumor cells.
# [5] = test system: T-24 cells co-cultured with macrophages; experiment: Macrophage antigen presentation after co-culture with treated T-24 cells; assay type: cell-based; conditions: T-24 treated 24 hours; macrophages harvested 4 days after co-culture
# Experimental: as §1
# MCF7 breast cancer cells = experiment: Western blot analysis of ER stress response in MCF7 cells; assay type: cell-based; conditions: 16 hours
# Experimental: MCF7 breast cancer cells were treated with 100 nM MMAE for 16 hours and harvested RIPA buffer for western blot analysis.
# MCF7 cells were treated with MMAE or an MMAE-containing ADC (SGN-LIV1A) for 16 hours and harvested in […] for western bot analysis. […] Induction of ICD is also characterized by the secretion of ATP and HMGB1. Extracellular ATP serves as a strong chemotactic signal, promoting immune cell migration to the tumor site. Upon arrival, extracellular HMGB1 signals through various pro-inflammatory receptors (TLR2, TLR4, RAGE) to activate antigen-presenting cells, thereby promoting immune activity within the tumor.
# [6] = test system: MCF7 cells co-cultured with macrophages; experiment: Cytokine and chemokine production in macrophage co-culture with treated MCF7 cells; assay type: cell-based; conditions: MCF7 co-culture supernatant 24 hours, ELISA, normalized to untreated
# Experimental: MCF7 […] cells were treated with MMAE, an MMAE-containing ADC (anti-CD71 OKT9-1006), vincristine, and Paclitaxel for 24 hours. Cells were washed and harvested, and subsequently co-cultured with the enriched macrophages prepared above. Macrophages were harvested 4 days after co-culture and assayed for immune activation by flow cytometry. […] Supernatant from the co-culture of macrophages and dying MCF7 cells was harvested 24 hours later and assayed for levels of cytokine and chemokine production by ELISA and normalized to macrophages that were co-cultured with untreated tumor cells.
# [7] = test system: Hep3b, Huh7, and JHH7 cells co-cultured with macrophages; experiment: Cytokine and chemokine production in macrophage co-culture with treated liver tumor cells; assay type: cell-based; conditions: Huh7, JHH7 co-culture supernatant 24 hours, ELISA, normalized to untreated
# Experimental: as §2
# [8] = test system: T-24 tumor cells co-cultured with macrophages; experiment: Cytokine and chemokine production in macrophage co-culture with treated T-24 cells; assay type: cell-based; conditions: T-24 co-culture supernatant after 24 hours, ELISA, normalized to untreated
# Experimental: as §1
# [9] = test system: MiaPaca-CHOP-luciferase cells; experiment: CHOP-driven luciferase reporter assay of severe ER stress; assay type: cell-based; conditions: after 16 hours
# Experimental: Severe ER stress leads to upregulation of CHOP, and initiates mitochondrial apoptosis. MiaPaca2 pancreatic tumor cells were engineered to express a CHOP-driven luciferase reporter system (purchased from Signosis, Inc.) that allows for quantifiable monitoring of severe ER stress. MiaPaca-CHOP-luciferase cells were treated with MMAE, vincristine, and Paclitaxel, and assayed for luciferase expression after 16 hours.
# [10] = test system: A2058, SK-MEL-5, SK-MEL-28, Calu-1, HT-1080, SK-MES-1 and BXPC3 cells; experiment: ATP secretion in a panel of solid tumor cell lines; assay type: cell-based; conditions: 7 cell lines, supernatant after 17 hours
# Experimental: Skin tumor lines A2058, SK-MEL-5 and SK-MEL-28, Calu-1 (lung), HT-1080 (fibrosarcoma), SK-MES-1 (lung), and BXPC3 (pancreas) cells were treated with MMAE, vincristine, and Paclitaxel. Supernatant was collected after 17 hours of treatment, and analyzed for ATP secretion.
structure (smiles),measurement,setting,value
"CC[C@H](C)[C@@H]([C@@H](CC(=O)N1CCC[C@H]1[C@H](OC)[C@@H](C)C(=O)N[C@H](C)[C@@H](O)c1ccccc1)OC)N(C)C(=O)[C@@H](NC(=O)[C@@H](NC)C(C)C)C(C)C [MMAE, monomethyl auristatin E] (H-[NMeV]V[Dil][Dolaproine]-X1)",Secretion of ATP,MCF7 cells,increased secretion
same,ER stress responses (phosphorylation of IRE1),[1],activated ER stress responses
same,Severe ER stress response (phosphorylation of JNK),[1],more severe ER stress response that was sustained with decreasing doses
same,"ER stress response (ATF4 expression, phosphorylation of JNK)",[2],further increased the ER stress response
same,ATP secretion,T-24 (bladder) cells,potent ATP secretion
same,Severe ER stress in engrafted tumors (tumoral luciferase signal over time),[3],rapidly elicited severe ER stress
same,"Immune-activation (CD86 expression, JHH7; MHCII-expressing cells, Hep3b, Huh7, JHH7)",[4],increase in immune-activation in 3/3 tumor cell lines that was more robust than Paclitaxel
same,Macrophage antigen presentation (frequency of MHCII-expressing macrophages),[5],increase in macrophage antigen presentation that was more robust than treatment with Paclitaxel
same,"Severe ER stress (JNK signaling by phosphorylated IRE1, expression of CHOP)",MCF7 breast cancer cells; western blot,elicited by MMAE
same,"ER stress response (phosphorylation of IRE1 and eIF2a, cleavage of full-length ATF6)",MCF7 breast cancer cells; western blot (100 nM MMAE elsewhere in the source),activated all 3 pathways of the ER stress response
same,Cytokine and chemokine production,[6],increase of the indicated cytokines and chemokines that was more robust than treatment with Paclitaxel
same,Cytokine and chemokine production,[7],increase of the indicated cytokines and chemokines that was more robust than treatment with Paclitaxel
same,Cytokine and chemokine production,[8],increase of the indicated cytokines and chemokines that was more robust than treatment with Paclitaxel
same,Luciferase signal as a proxy of severe ER stress induction,[9],dose-dependent increase in luciferase signal
same,ATP secretion (cell lines responding),[10],ATP secretion in most of the cell lines assayed (6/7)
same,ATP secretion response compared with Paclitaxel,[10],more robust response than Paclitaxel in all cell lines assayed
